Laboratory results from the supplement of paper PMC5908809.

Assays:
[1] = system: SNK-6 (IL-2 2.5 ng/mL); test: percent inhibition of viability; higher = more inhibition; conditions: 72 h
[2] = system: YT (IL-2 2.5 ng/mL); test: as above; conditions: 72 h
[3] = system: KAI3 (IL-2 2.5 ng/mL); test: as above; conditions: 72 h
[4] = system: normal primary NK cells, pool 1 (3 donors), resting (IL-2 0 ng/mL); test: as above; conditions: 72 h
[5] = system: KHYG-1 (IL-2 2.5 ng/mL); test: as above; conditions: 72 h
[6] = system: NKL (IL-2 2.5 ng/mL); test: as above; conditions: 72 h
[7] = system: NK-YS (IL-2 2.5 ng/mL); test: as above; conditions: 72 h
[8] = system: normal primary NK cells, pool 3 (3 donors) (IL-2 2.5 ng/mL); test: as above; conditions: 72 h
[9] = system: DERL-7 (IL-2 2.5 ng/mL); test: as above; conditions: 72 h
[10] = system: IMC-1 (IL-2 20 ng/mL); test: as above; conditions: 72 h
[11] = system: normal primary NK cells, pool 1 (3 donors) (IL-2 2.5 ng/mL); test: as above; conditions: 72 h
[12] = system: NK-92 (IL-2 2.5 ng/mL); test: as above; conditions: 72 h
[13] = system: normal primary NK cells, pool 2 (3 donors) (IL-2 2.5 ng/mL); test: as above; conditions: 72 h
[14] = system: normal NK cells expanded with K562-aAPC; test: drug sensitivity score (DSS) (DSS units); higher = more sensitive; extreme values may be limits of the assay; conditions: 72 h; IL-2 2.5 ng/mL
Description: (§1)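 Drug sensitivity and resistance testing on K562-aAPC-expanded normal NK cells: 5 concentrations (10-fold steps over a 10,000-fold range), 72 h at 37 °C, viability by CellTiter-Glo normalised to DMSO and benzethonium chloride controls; DSS from the fitted curve.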

[15] = system: SNK-6 (IL-2 2.5 ng/mL); test: as above; conditions: 72 h
[16] = system: YT (IL-2 2.5 ng/mL); test: as above; conditions: 72 h
[17] = system: KAI3 (IL-2 2.5 ng/mL); test: as above; conditions: 72 h
[18] = system: normal primary NK cells, pool 1 (3 donors), resting (IL-2 0 ng/mL); test: as above; conditions: 72 h
[19] = system: KHYG-1 (IL-2 2.5 ng/mL); test: as above; conditions: 72 h
[20] = system: NKL (IL-2 2.5 ng/mL); test: as above; conditions: 72 h
[21] = system: NK-YS (IL-2 2.5 ng/mL); test: as above; conditions: 72 h
[22] = system: normal primary NK cells, pool 3 (3 donors) (IL-2 2.5 ng/mL); test: as above; conditions: 72 h
[23] = system: DERL-7 (IL-2 2.5 ng/mL); test: as above; conditions: 72 h
[24] = system: IMC-1 (IL-2 20 ng/mL); test: as above; conditions: 72 h
[25] = system: normal primary NK cells, pool 1 (3 donors) (IL-2 2.5 ng/mL); test: as above; conditions: 72 h
[26] = system: NK-92 (IL-2 2.5 ng/mL); test: as above; conditions: 72 h
[27] = system: normal primary NK cells, pool 2 (3 donors) (IL-2 2.5 ng/mL); test: as above; conditions: 72 h
[28] = system: normal NK cells expanded with K562-aAPC; test: percent inhibition of viability; higher = more inhibition; conditions: 72 h, IL-2 2.5 ng/mL
Description: as §1

CO[C@H]1C[C@@H]2CC[C@@H](C)[C@@](O)(O2)C(=O)C(=O)N2CCCC[C@H]2C(=O)O[C@H]([C@H](C)C[C@@H]2CC[C@@H](OCCO)[C@H](OC)C2)CC(=O)[C@H](C)/C=C(\C)[C@@H](O)[C@@H](OC)C(=O)[C@H](C)C[C@H](C)/C=C/C=C/C=C/1C [Everolimus] (max concentration tested 100 nM)
percent inhibition of viability [%]
Conditions | 0.01 nM | 0.1 nM | 1 nM | 10 nM | 100 nM
[1] | 5.61 | 27 | 39.2 | 45.4 | 42.4
[2] | 0.19 | -0.65 | 15.8 | 38.4 | 37
[3] | -3.78 | 2.36 | 31.4 | 45.3 | 37.6
[4] | -9.7 | -10.5 | -6.43 | 11.5 | 21.5
[5] | -2.44 | -5.06 | 0.91 | 30.6 | 28.2
[6] | 4.18 | 17.6 | 36.9 | 46 | 43.3
[7] | -2.59 | 2.94 | 38.2 | 47.2 | 45.8
[8] | -12.6 | -4.69 | -3.14 | -1.42 | -2.25
[9] | -6.16 | 5.85 | 26.6 | 49.4 | 52.4
[10] | -0.49 | -3.23 | -12.1 | -39.5 | -47.1
[11] | -12.5 | -14.8 | -8.5 | 3.67 | 5.77
[12] | -9.11 | -13.2 | 0.14 | 10.7 | 17
[13] | -7.7 | -1.98 | 0.82 | 5.73 | 4.97
[28] | -0.77 | -3.8 | -2.52 | 2.05 | 0.46

Conditions | drug sensitivity score
[14] | 0
[15] | 16.6
[16] | 8.98
[17] | 12.1
[18] | 1.91
[19] | 5.27
[20] | 14.5
[21] | 13.5
[22] | 0
[23] | 12.3
[24] | 0
[25] | 0
[26] | 1.27
[27] | 0
